SMILES strings stand for the structures. “And” between values parts separate entries of the source, which are not always exact repeats. Equal values may be shown once. Results filed as inconclusive are left out.

This note sets out measurements from PubChem BioAssay AID220 (DTP/NCI, 2004).

For the assay, the system named is CD8F1 mice, subcutaneous mammary adenocarcinoma, T/C%. Briefly: NCI In Vivo Anticancer Drug Screen. Data for tumor model Mammary Adenocarcinoma CD8F1 (subcutaneous) in CD8F1. The following applies: higher = larger tumour. The essentials:
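Mice carrying transplanted tumors received test compound, and survival or tumor size was recorded. Each value is the treated-group measurement divided by the corresponding measurement in vehicle-dosed controls.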

The mark [1] stands for this setting: endpoint: median tumor weight (est.), dose: 25.0 mg/kg/injection, schedule: Q07DX005 (ip), vehicle: Klucel (hydroxypropylcellulose) (HPC).
[2] abbreviates: endpoint: median tumor weight (est.), dose: 25.0 mg/kg/injection, schedule: Q07DX005 (ip), vehicle: saline.
[3] abbreviates: endpoint: median tumor weight (est.), dose: 50.0 mg/kg/injection, schedule: Q07DX005 (ip), vehicle: saline.
The mark [4] stands for this setting: endpoint: median tumor weight (est.), dose: 100.0 mg/kg/injection, schedule: Q07DX005 (ip), vehicle: Klucel (hydroxypropylcellulose) (HPC).
The mark [5] stands for this setting: endpoint: median tumor weight (est.), dose: 100.0 mg/kg/injection, schedule: Q07DX005 (ip), vehicle: saline.
[6] abbreviates: endpoint: median tumor weight (est.), dose: 200.0 mg/kg/injection, schedule: Q07DX005 (ip), vehicle: Klucel (hydroxypropylcellulose) (HPC).
[7] abbreviates: endpoint: median tumor weight (est.), dose: 200.0 mg/kg/injection, schedule: Q07DX005 (ip), vehicle: saline.
[8] abbreviates: endpoint: median tumor weight (est.), dose: 400.0 mg/kg/injection, schedule: Q07DX005 (ip), vehicle: saline.
Setting [9] is: endpoint: median tumor weight change, dose: 62.5 mg/kg/injection, schedule: Q01DX001 (ip), vehicle: saline with Tween-80.
Setting [10] is: endpoint: median tumor weight (est.), dose: 12.5 mg/kg/injection, schedule: Q07DX005 (ip), vehicle: Klucel (hydroxypropylcellulose) (HPC).
[11] abbreviates: endpoint: median tumor weight (est.), dose: 12.5 mg/kg/injection, schedule: Q07DX005 (ip), vehicle: saline.

For `Cc1c(-c2ccc(-c3ccccc3F)cc2)nc2ccc(F)cc2c1C(=O)O`, the T/C is 53 % of control (endpoint: median tumor weight change, dose: 5.6 mg/kg/injection, schedule: Q01DX005 (ip), vehicle: water); 33 % of control (endpoint: median tumor weight change, dose: 11.25 mg/kg/injection, schedule: Q01DX005 (ip), vehicle: water); 74 % of control (endpoint: median tumor weight change, dose: 19.0 mg/kg/injection, schedule: Q01DX005 (ip), vehicle: water); 29 % of control (endpoint: median tumor weight change, dose: 22.5 mg/kg/injection, schedule: Q01DX005 (ip), vehicle: water); 13 % of control (endpoint: median tumor weight change, dose: 32.4 mg/kg/injection, schedule: Q01DX005 (ip), vehicle: water); 56 % of control (endpoint: median tumor weight change, dose: 45.0 mg/kg/injection, schedule: Q01DX001 (ip), vehicle: water). Also, the T/C is 24 % of control (endpoint: median tumor weight change, dose: 45.0 mg/kg/injection, schedule: Q01DX005 (ip), vehicle: water); 27 % of control (endpoint: median tumor weight change, dose: 54.0 mg/kg/injection, schedule: Q01DX005 (ip), vehicle: water); 82 % of control (endpoint: median tumor weight change, dose: 90.0 mg/kg/injection, schedule: Q01DX001 (ip), vehicle: water); 15 % of control and 20 % of control (endpoint: median tumor weight change, dose: 90.0 mg/kg/injection, schedule: Q01DX005 (ip), vehicle: water).
For `[Cl][Pt+2][Cl].[NH-]CC1(C[NH-])CCC1`, the T/C (endpoint: median tumor weight change, dose: 12.5 mg/kg/injection, schedule: Q01DX001 (ip), vehicle: suspension in saline) was 79 % of control.
For the compound `OC(CBr)C(O)C(O)C(O)CBr` (centres undefined), the T/C reads like this: (endpoint: mean tumor weight, dose: 100.0 mg/kg/injection, schedule: Q01DX009 (ip), vehicle: saline) 164 % of control; (endpoint: mean tumor weight, dose: 150.0 mg/kg/injection, schedule: Q01DX009 (ip), vehicle: saline) 89 % of control; (endpoint: mean tumor weight, dose: 200.0 mg/kg/injection, schedule: Q01DX009 (ip), vehicle: saline) 69 % of control; (endpoint: mean tumor weight, dose: 300.0 mg/kg/injection, schedule: Q01DX009 (ip), vehicle: saline) 49 % of control; (endpoint: mean tumor weight, dose: 400.0 mg/kg/injection, schedule: Q01DX009 (ip), vehicle: saline) 53 % of control; (endpoint: mean tumor weight, dose: 500.0 mg/kg/injection, schedule: Q01DX009 (ip), vehicle: saline) 38 % of control. Moreover, the T/C under setting [1] is 49 % of control; the T/C under setting [2] is 84 % of control; the T/C under setting [3] was 32 % of control; the T/C under setting [4] is 31 % of control; the T/C under setting [5] is 41 % of control; the T/C under setting [6] was 2 % of control. The T/C runs as follows: under setting [7], 28 % of control; under setting [8], 7 % of control; (endpoint: median tumor weight (est.), dose: 1200.0 mg/kg/injection, schedule: Q07DX005 (ip), vehicle: Klucel (hydroxypropylcellulose) (HPC)) 13 % of control; (endpoint: median tumor weight change, dose: 150.0 mg/kg/injection, schedule: Q01DX001 (ip), vehicle: Klucel (hydroxypropylcellulose) (HPC)) 95 % of control; (endpoint: median tumor weight change, dose: 300.0 mg/kg/injection, schedule: Q01DX001 (ip), vehicle: Klucel (hydroxypropylcellulose) (HPC)) 39 % of control; (endpoint: median tumor weight change, dose: 600.0 mg/kg/injection, schedule: Q01DX001 (ip), vehicle: Klucel (hydroxypropylcellulose) (HPC)) 51 % of control.
Consider `COc1cccc2c1C(=O)c1c(O)c3c(c(O)c1C2=O)CC(O)(/C(C)=N/NC(=O)CCCCC(=O)N/N=C(\C)C1(O)Cc2c(O)c4c(c(O)c2C(OC2CC(N)C(O)C(C)O2)C1)C(=O)c1c(OC)cccc1C4=O)CC3OC1CC(N)C(O)C(C)O1` (centres undefined), for which the T/C is 113 % of control (endpoint: median tumor weight change, dose: 16.0 mg/kg/injection, schedule: Q01DX001 (ip), vehicle: water) and 36 % of control (endpoint: median tumor weight change, dose: 31.0 mg/kg/injection, schedule: Q01DX001 (ip), vehicle: water).
Turning to `CCCCc1ccc2nc(NC(=O)OC)[nH]c2c1`, the T/C is 196 % of control (endpoint: mean tumor weight, dose: 12.5 mg/kg/injection, schedule: Q07DX006 (ip), vehicle: saline with Tween-80); 120 % of control (endpoint: mean tumor weight, dose: 100.0 mg/kg/injection, schedule: Q07DX006 (ip), vehicle: saline with Tween-80); 161 % of control (endpoint: mean tumor weight, dose: 200.0 mg/kg/injection, schedule: Q07DX006 (ip), vehicle: saline with Tween-80); 67 % of control (endpoint: mean tumor weight, dose: 400.0 mg/kg/injection, schedule: Q07DX006 (ip), vehicle: saline with Tween-80); 55 % of control (endpoint: median tumor weight (est.), dose: 12.5 mg/kg/injection, schedule: Q07DX005 (ip), vehicle: saline with Tween-80); 61 % of control (endpoint: median tumor weight (est.), dose: 25.0 mg/kg/injection, schedule: Q07DX005 (ip), vehicle: saline with Tween-80). Also, the T/C by setting is: (endpoint: median tumor weight (est.), dose: 50.0 mg/kg/injection, schedule: Q07DX005 (ip), vehicle: saline with Tween-80) 122 % of control; (endpoint: median tumor weight (est.), dose: 100.0 mg/kg/injection, schedule: Q07DX005 (ip), vehicle: saline with Tween-80) 84 % of control; (endpoint: median tumor weight (est.), dose: 200.0 mg/kg/injection, schedule: Q07DX005 (ip), vehicle: saline with Tween-80) 49 % of control.
For `[CH3][Sn]([CH3])([Cl])[S]CCN`, the T/C (endpoint: median tumor weight change, dose: 12.5 mg/kg/injection, schedule: Q01DX001 (ip), vehicle: saline) was 108 % of control.
Consider `CCOC(=O)c1ccc(NN=NCCF)cc1`, for which the T/C was 80 % of control (endpoint: median tumor weight change, dose: 15.6 mg/kg/injection, schedule: Q01DX001 (ip), vehicle: distilled water + Tween-80); 65 % of control (endpoint: median tumor weight change, dose: 31.25 mg/kg/injection, schedule: Q01DX001 (ip), vehicle: distilled water + Tween-80); 114 % of control (endpoint: median tumor weight change, dose: 62.5 mg/kg/injection, schedule: Q01DX001 (ip), vehicle: distilled water + Tween-80); 56 % of control (endpoint: median tumor weight change, dose: 125.0 mg/kg/injection, schedule: Q01DX001 (ip), vehicle: distilled water + Tween-80).
As to `C=COC(=O)C(Cc1ccccc1)NC(=O)OCc1ccccc1` (centres undefined), the T/C under setting [9] is 103 % of control; the T/C (endpoint: median tumor weight change, dose: 125.0 mg/kg/injection, schedule: Q01DX001 (ip), vehicle: saline with Tween-80) was 58 % of control; the T/C (endpoint: median tumor weight change, dose: 250.0 mg/kg/injection, schedule: Q01DX001 (ip), vehicle: saline with Tween-80) is 46 % of control; the T/C (endpoint: median tumor weight change, dose: 500.0 mg/kg/injection, schedule: Q01DX001 (ip), vehicle: saline with Tween-80) was 33 % of control; the T/C (endpoint: median tumor weight change, dose: 1000.0 mg/kg/injection, schedule: Q01DX001 (ip), vehicle: saline with Tween-80) was 75 % of control.
For `Cc1ccc2c(ccc(CC(=S)[S-])[n+]2C)c1`, the T/C is, setting by setting: under setting [10], 72 % of control and 97 % of control; under setting [1], 90 % of control; (endpoint: median tumor weight (est.), dose: 50.0 mg/kg/injection, schedule: Q07DX005 (ip), vehicle: Klucel (hydroxypropylcellulose) (HPC)) 102 % of control and 121 % of control; under setting [4], 46 % of control and 71 % of control; under setting [6], 32 % of control.
Consider `COC(=O)C[C@](O)(CCC(C)(C)O)C(=O)O[C@@H]1C(OC)=C[C@]23CCCN2CCc2cc4c(cc2[C@H]13)OCO4`, for which the T/C is 80 % of control and 96 % of control (endpoint: median tumor weight change, dose: 1.25 mg/kg/injection, schedule: Q01DX001 (ip), vehicle: saline); 89 % of control and 94 % of control (endpoint: median tumor weight change, dose: 2.5 mg/kg/injection, schedule: Q01DX001 (ip), vehicle: saline); 68 % of control (endpoint: median tumor weight change, dose: 10.0 mg/kg/injection, schedule: Q01DX001 (ip), vehicle: saline).
Turning to `CC1/C=C/C=C/CC/C=C/C=C/C=C/C=C/C(OC2OC(C)C(O)C(N)C2O)CC2OC(CC(O)C(O)CCC(O)CC(O)CC(O)CC(=O)OC(C)C(C)C1O)CC(O)C2C(=O)O` (centres undefined), the T/C is, setting by setting: (endpoint: median tumor weight change, dose: 31.25 mg/kg/injection, schedule: Q01DX001 (ip), vehicle: saline with Tween-80) 124 % of control; under setting [9], 84 % of control.
On to `c1cc2n(n1)CCN2`, for which the T/C by setting is: under setting [11], 76 % of control; under setting [2], 94 % of control; under setting [3], 102 % of control; under setting [5], 85 % of control; under setting [7], 54 % of control; under setting [8], 46 % of control.
On to `C=Cc1cnc([N+](=O)[O-])n1C`, for which the T/C reads like this: under setting [10], 122 % of control; under setting [1], 92 % of control; under setting [4], 42 % of control; under setting [6], 30 % of control.
As for `Cc1c2c(ccc3ccccc32)c[n+]2ccccc12`, the T/C reads like this: (endpoint: median tumor weight (est.), dose: 6.25 mg/kg/injection, schedule: Q07DX005 (ip), vehicle: saline) 73 % of control; under setting [11], 71 % of control.
For `c1ccc(SSc2ccccn2)nc1`, the T/C runs as follows: (endpoint: mean tumor weight, dose: 25.0 mg/kg/injection, schedule: Q07DX006 (ip), vehicle: saline) 123 % of control; (endpoint: mean tumor weight, dose: 100.0 mg/kg/injection, schedule: Q07DX006 (ip), vehicle: saline) 159 % of control.
